Laboratory results: patent US20070275935A1, “Estratriene Derivatives” (priority 2003, published 2007)

Experiments:
[1] = system: Human airway smooth muscle (HASM) cells; assay: Thrombin-induced proliferation of human airway smooth muscle (HASM) cells, cell number after 48 h; assay type: cell-based; conditions: for Cell number (% control) Thrombin (0.3 U/ml): 30 min pre-incubation, mean ± SEM (n), without analogue 133.5 ± 4.1; for Cell number (% control) Thrombin (0.3 U/ml) / inhibition of thrombin-mediated HASM proliferation, in words (FIG. 1): 48 h; for HASM-Thr pIC50 / IC50: negative log of the concentration that reduces the thrombin-induced proliferative response by 50%, pIC50 of 4.00 = inactive; for HASM- Thr pIC25 / HASM- Thr pIC75: two site model, thrombin-induced proliferation; for HASM- Thr pIC25: first phase (inhibition up to 50%); for HASM- Thr pIC75: second phase (inhibition up to 100%); for inhibition of thrombin-mediated HASM proliferation, in words (FIG. 1): thrombin 0.3 U/ml; for IC50: Homo sapiens, read-out: HASM-Thr pIC50 (converted)
Outline: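 Primary human bronchial smooth muscle cells seeded at 1.5×10^4 cells/cm², serum-starved 24 h, pre-incubated with compound 30 min, then stimulated 48 h with thrombin 0.3 U/ml. Cells counted by haemocytometer with trypan blue; pIC50 as negative log concentration halving proliferative response.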

Pulmonary fibroblasts = assay: bFGF-induced proliferation of human pulmonary fibroblasts; assay type: cell-based; conditions: for pFib - bFGF: inhibition of bFGF (300 pM)-induced proliferation, mean and SEM, minimum 3 experiments, 1 μM, * not defined; for effect on bFGF-induced increase in pulmonary fibroblast cell number, in words: concentration range of 1 to 1000 nM, bFGF 300 pM, 48 h
Experimental: Samples of parenchyma from human lung transplant recipients were dissected away from the pleura, chopped into fragments of less than 1 mm^2 and allowed to adhere to plastic culture dishes in a minimal volume of DMEM containing serum (10%) and antibiotics (as used for HASM culture). After the tissue fragments had adhered to the base of the dish additional medium was added. Medium was changed twice weekly until an explant culture formed, at which time the tissue fragments were removed and the cells were passaged in a 1:3 split ratio by exposure to trypsin weekly to produce pulmonary fibroblast cultures.
Pulmonary fibroblasts were cultured in DMEM, serum-deprived for 24 h, in the presence or absence of the test compounds, and then stimulated with 300 pM bFGF for 48 h before harvest and counting of viable cells. An increase pulmonary fibroblast cell number was prevented by 4NOM over the concentration range of 1 to 1000 nM.
A range of the disclosed compounds was subsequently examined using the above assay system, and the results are summarized in Column E of Table 4. […] The proliferation of parenchymal fibroblasts is important in the development of pulmonary fibrosis.

[2] = system: type II airway epithelial cell line, A549; assay: Proliferation of A549 cells in response to 5% FCS; assay type: cell-based, human; conditions: for effect on proliferation of A549 cells, in words (FIG. 2): 5% FCS, 48 h; for A549 PIC50 / IC50: proliferation in response to 5% FCS, pIC50 of 4.00 = inactive; for IC50: Homo sapiens, A549, read-out: A549 PIC50 (converted)

Structure (SMILES) | Cell number (% control) Thrombin (0.3 U/ml) ([1]; analogue 10 μM) | HASM-Thr pIC50 [1] | HASM- Thr pIC25 [1] | HASM- Thr pIC75 [1] | pFib - bFGF (Pulmonary fibroblasts) | effect on proliferation of A549 cells, in words (FIG. 2) ([2]; concentration not given) | A549 PIC50 [2] | Cell number (% control) Thrombin (0.3 U/ml) ([1]; analogue 1 μM) | inhibition of thrombin-mediated HASM proliferation, in words (FIG. 1) [1] | effect on bFGF-induced increase in pulmonary fibroblast cell number, in words (Pulmonary fibroblasts) | effect on proliferation of A549 cells, in words (FIG. 2) ([2]; concentrations below 3 μM) | pFib - bFGF (Pulmonary fibroblasts; listed as 4NOM) | IC50 [1] | IC50 [2]
COc1cc2c(cc1O)CC[C@@H]1[C@@H]2CC[C@]2(C)[C@@H](O)CC[C@@H]12 [2-methoxyestradiol, reference compound] | 100.9 ± 8.1 (13) % control | 5.49 | 5.94 | 4.98 | 62 ± 20* | effective inhibitor | 6.00 | – | – | – | – | – | – | –
COc1cc2c(cc1O)C(=NOCc1ccc([N+](=O)[O-])cc1)C[C@@H]1[C@@H]2CC[C@]2(C)[C@@H](O)CC[C@@H]12 [CP-DM-2-11-7, 2-methoxy-6-(4-nitrobenzyloxy)iminoestradiol] | – | 6.90 | 8.82 | 5.66 | 63 ± 15* | – | 4.89 | 111.1 ± 6.9 (13) % control | inhibitory activity on proliferation of HASM cells over a wide concentration range (10 nM to 10 μM) | significantly reduced the proliferative response | no detectable effect | – | – | –
COc1cc2c(cc1O)C(=NOCc1ccc([N+](=O)[O-])cc1)C[C@@H]1[C@@H]2CC[C@]2(C)C(=NO)CC[C@@H]12 [CP-DM-3-91, 2-methoxy-6-(4-nitrobenzyloxy)iminoestrone-17-oxime] | – | 7.59 | 10.32 | 5.70 | 49 ± 14* | – | 4.99 | 117.5 ± 8.5 (8) % control | considerably more potent than either 2MEO or 4NO | prevented | – | significant inhibitory activity | – | –
C[C@]12CC[C@@H]3c4ccc(O)cc4CC[C@H]3[C@@H]1CC/C2=N\OCc1cccc([N+](=O)[O-])c1 [CP-DM-3-102, estrone-17-(3-nitrobenzyl)oxime] | – | – | 8.03 | 5.99 | 96 ± 4* | – | – | – | – | – | – | – | 0.0891 µM | 12.6 µM
COc1cc2c(cc1O)/C(=N/OCc1cc(F)cc(F)c1)C[C@@H]1[C@@H]2CC[C@]2(C)[C@@H](O)CC[C@@H]12 [CP-DM-4-35, 6-(3,5-difluorobenzyloxy)imino-2-methoxyestradiol] | – | – | 7.80 | 5.75 | 22 ± 14 | – | – | – | – | – | – | – | 0.141 µM | 3.16 µM
COc1cc2c(cc1O)/C(=N/OCc1ccc(SC(F)(F)F)cc1)C[C@@H]1[C@@H]2CC[C@]2(C)[C@@H](O)CC[C@@H]12 [CP-DM-4-65, 2-methoxy-6-(4-trifluoromethylthiobenzyloxy)iminoestradiol] | – | – | – | – | 32 ± 23 | – | – | – | – | – | – | – | 0.224 µM | 3.16 µM
